From patent publication US11827628B2, “Compositions and methods for inhibition of the JAK pathway” (Rigel Pharmaceuticals, Inc., priority 2005, dated 2023)
Structures can show the parent of a compound that is named as a salt. Where two headings read alike, the source gives them in different places.

Columns and labels:
[1] = tested on: IL-4 stimulated expression of CD23 in human Ramos B cells (JAK-1 and JAK-3); assay: Assay for Ramos B-Cell Line Stimulated with IL-4 (CD23 upregulation, FACS); format: cell-based; details: read-out: IC50, Example 41
Procedure, shortened: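 Read-out: anti-CD23-PE flow cytometry on Ramos B cells, giving IC50. Cells (5×10^4 per point, RPMI + 5% serum) get compound or DMSO for 1 h at 37 °C, then IL-4 50 units/mL final for 20-24 h.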

[2] = tested on: up-regulation of ICAM-1 (CD54) by IFNγ in U937 human monocytic cells; assay: U937 IFNγ ICAM1 FACS Assay; format: cell-based; details: U937 cells stimulated with IFNγ, ICAM-1 expression by FACS, read-out: IC50, Example 44
Procedure, shortened: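 Readout was the geometric-mean APC anti-ICAM-1 signal by FACS on live U937 monocytic cells, with % live cells also recorded. Cells were exposed to compounds (8 points, 3-fold dilutions, duplicates) for 30 min at 37 °C before 18–24 h of IFNγ stimulation. EC50 values were computed from the dose curve.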

[3] = Ramos B cells stimulated with IL-4, CD23 expression by FACS
[4] = Ramos B-cell line stimulated with IL-4, CD23 expression by FACS

Row | IC50 [1, 3] [nM] | IC50 [2] [nM] | IC50 [1, 4] [nM] | SMILES | also measured
1 | 47.6 | 38500 |  | NC1CCOc2ccc(Nc3nc(Nc4ccc(S(N)(=O)=O)cc4)ncc3F)cc21 (centres unmarked) [VII-29, N2-(4-Aminosulfonylphenyl)-N4-(chroman-4-amine-6-yl)-5-fluoro-2,4-pyrimidinediamine] | 
2 | 545 | 9260 |  | Cc1ccc(Nc2ncc(F)c(Nc3ccc4c(c3)CC(C(=O)N(C)C)O4)n2)cc1S(N)(=O)=O (racemic) [VII-26, Racemic N2-(3-Aminosulfonyl-4-methylphenyl)-N4-[2-(N,N-dimethylaminocarbonyl)-2,3-dihydrobenzofuran-5-yl]-5-fluoro-2,4-pyrimidinediamine] | 
3 | 314 | 3430 |  | COCCOc1ccc(Nc2nc(Nc3ccc(Cl)c(S(N)(=O)=O)c3)ncc2F)cc1 [VI-111, N2-(3-Aminosulfonyl-4-chlorophenyl)-5-fluoro-N4-[4-(2-methoxyethyleneoxy)phenyl]-2,4-pyrimdinediamine] | 
4 |  | 805 | 102 | Cc1cc(COc2ccc(Nc3nc(Nc4ccc(C)c(S(N)(=O)=O)c4)ncc3F)cc2)n(C)n1 [Compound I-198, N2-(3-Aminosulfonyl-4-methylphenyl)-N4-[4-(1,3-dimethyl-(1H)-pyrazol-5-yl)methyleneoxyphenyl]-5-fluoro-2,4-pyrimidinediamine] | 
5 | 353 | 6960 |  | CNC(=O)N1CCc2ccc(Nc3nc(Nc4ccc(C)c(S(N)(=O)=O)c4)ncc3F)cc2C1 [VII-17, N2-(3-Aminosulfonyl-4-methylphenyl)-5-fluoro-N4-[2-(methylaminocarbonyl)-1,2,3,4-tetrahydroisoquin-7-yl]-2,4-pyrimidinediamine] | 
6 |  | 1500 | 145 | CNS(=O)(=O)c1cc(Nc2ncc(F)c(Nc3ccc(OCc4cccnc4)cc3)n2)ccc1C [Compound I-190, 5-Fluoro-N2-[3-(N-methylaminosulfony)-4-methylphenyl]-5-fluoro-N4-[4-(3-pyridinyl)methyleneoxyphenyl]-2,4-pyrimidinediamine] | 
7 |  |  |  | CNS(=O)(=O)c1cc(Nc2ncc(F)c(Nc3ccc(Cn4ccnc4)cc3)n2)ccc1C [III-86, 5-Fluoro-N2-[3-(N-methylaminosulfony)-4-methylphenyl]-N4-[4-(1-imidazolylmethyl)phenyl]-2,4-pyrimidinediamine dihydrochloride] | IC50 ([1]; Ramos B-cell line stimulated with IL-4, CD23 expression by FACS, dihydrochloride): 97.6 nM; IC50 ([2]; dihydrochloride): 6450 nM
8 |  | 796 | 135 | CCN(CC)CCNS(=O)(=O)c1ccc(Nc2ncc(F)c(Nc3ccc(OCc4cccnc4)cc3)n2)cc1 [Compound I-191, N2-[4-(2-N,N-Diethylaminoethyl)aminosulfonylphenyl)-5-fluoro-N4-[4-(3-pyridinyl)methyleneoxyphenyl]-2,4-pyrimidinediamine] | 
9 | 233 | 6030 |  | CS(=O)(=O)N1CCc2cc(Nc3nc(Nc4ccc(S(N)(=O)=O)cc4)ncc3F)ccc21 [VII-63] | 
10 |  | 500 | 42.7 | NS(=O)(=O)c1cccc(Nc2ncc(F)c(Nc3ccc(OCc4cccnc4)cc3)n2)c1 [Compound I-188, N2-(3-Aminosulfonylphenyl)-5-fluoro-N4-[4-(3-pyridinyl)methyleneoxyphenyl]-2,4-pyrimidinediamine] | 
11 | 66.6 | 568 |  | CCS(=O)(=O)N1CCc2cc(Nc3nc(Nc4ccc(C)c(S(N)(=O)=O)c4)ncc3F)ccc2C1 [VII-15, N2-(3-aminosulfonyl-4-methyl)phenyl-N4-[(N-ethylsulfonyl)-1,2,3,4-tetrahydroisoquinolin-6-yl]-5-fluoro-2,4-pyrimidinediamine] | 
12 |  | 787 | 233 | CN1CCN(c2ccc(Nc3ncc(F)c(Nc4ccc(OCC#N)cc4)n3)cc2S(N)(=O)=O)CC1 [Compound I-9, N2-[3-Aminosulfonyl-4-(4-methylpiperazin-1-yl)phenyl]-5-fluoro-N4-(4-cyanomethyleneoxyphenyl)-2,4-pyrimidinediamine] | 
13 |  | 754 |  | NS(=O)(=O)c1cccc(Nc2ncc(F)c(Nc3ccc(OCc4ccccn4)cc3)n2)c1 [Compound I-196, N2-(3-Aminosulfonylphenyl)-5-fluoro-N4-4-[(2-pyridinyl)methyleneoxyphenyl]-2,4-pyrimidinediamine Hydrochloride Salt] | IC50 ([1]; Ramos B-cell line stimulated with IL-4, CD23 expression by FACS, Hydrochloride Salt): 124 nM
14 |  | 1330 | 102 | Cc1ccc(Nc2ncc(F)c(Nc3cc(C)c(OC(C)C(N)=O)c(C)c3)n2)cc1S(N)(=O)=O (racemic) [Compound I-124, Racemic N4-[4-(1-Aminocarbonyl)ethoxy-3,5-dimethyl]phenyl-N2-(3-aminosulfonyl-4-methyl)phenyl-5-fluoro-2,4-pyrimidinediamine] | 
15 |  | 7200 | 355 | CC(C)(Oc1ccc(Nc2nc(Nc3cccc(S(N)(=O)=O)c3)ncc2F)cc1)C(N)=O [Compound I-126, N4-[4-(1-Aminocarbonyl-1-methyl)ethoxy]phenyl-N2-(3-aminosulfonyl)phenyl-5-fluoro-2,4-pyrimidinediamine] | 
16 |  | 222 | 36.9 | N#CCOc1ccc(Nc2nc(Nc3cccc(S(N)(=O)=O)c3)ncc2F)cc1F [Compound I-12, N2-(3-Aminosulfonylphenyl)-5-fluoro-N4-(4-cyanomethyleneoxy-3-fluorophenyl)-2,4-pyrimidinediamine] | 
17 | 103 | 877 |  | CCS(=O)(=O)N1CCc2cc(Nc3nc(Nc4cccc(S(N)(=O)=O)c4)ncc3F)ccc2C1 [VII-14, N2-(3-aminosulfonyl)phenyl-N4-[(N-ethylsulfonyl)-1,2,3,4-tetrahydroisoquinolin-6-yl]-5-fluoro-2,4-pyrimidinediamine] | 
18 | 87.5 | 1260 |  | CNC(=O)N1CCCc2cc(Nc3nc(Nc4ccc(C)c(S(N)(=O)=O)c4)ncc3F)ccc21 [VII-19, N2-(3-Aminosulfonyl-4-methylphenyl)-5-fluoro-N4-[1-(methylaminocarbonyl)-1,2,3,4-tetrahydroquin-6-yl]-2,4-pyrimidinediamine] | 
19 |  | 261 | 25.5 | CN1CCN(c2ccc(Nc3ncc(F)c(Nc4ccc(OCC#N)c(F)c4)n3)cc2S(N)(=O)=O)CC1 [Compound I-10, N2-[3-Aminosulfonyl-4-(4-methylpiperazine-1-yl)phenyl]-5-fluoro-N4-(4-cyanomethyleneoxy-3-fluorophenyl)-2,4-pyrimidinediamine] | 
